What all share (assay type): cell-based
For one experiment, the system named is AGS cells. In words: AGS cell proliferation (CellTiter-Glo). The following applies: AGS gastric carcinoma [heterozygous G12D], 72 hr, 0.5% DMSO, read-out: CTG(IC50) ABS-72 H(nM) AGS. On the procedure: The following cancer cell lines were employed: AGS gastric carcinoma [heterozygous G12D](ATCC, CRL-1739); A-427 lung carcinoma [heterozygous G12D](ATCC, HTB-53); ASPC1 pancreatic adenocarcinoma [homozygous G12D](ATCC, CRL-1682) and SW 1990 pancreatic adenocarcinoma [homozygous G12D](ATCC CRL-2172). Cell lines were cultured essentially according to ATCC recommendations.
(§1) AGS, A-427, ASPC1, SW 1990, and GP2D cells were plated in 96-well tissue culture plates at 4,000 cells/well and incubated at 37° […] for 72 hr in 100 μl of media. 3-old serial dilutions of each test compound were prepared ranging from 20 μM to 1.02 nM. Each cell line was then treated with test compounds at various concentrations with a final concentration of 0.5% DMSO/well, and then incubated at 37° C./5% CO2 for 72 hr. 100 μl of CellTiter-Glo® Reagent (Promega Corporation, Madison, WI) was added to each well and processed according manufacturer's protocol. Results were analyzed and IC50 values were calculated in GraphPad 7 software. AGS proliferation assay: A. EC50<100 nM; B. EC50=100-1000 nM; C. EC50>1000 nM; GP2D proliferation assay: A. EC50<100 nM; B. EC50=100-1000 nM; C. EC50>1000 nM; MKN1 proliferation assay: A. EC50<100 nM; B. EC50=100-1000 nM; C. EC50>1000 nM;
On the technique in general: ATP-based viability assays read luminescence as a measure of living cells.

A further experiment concerns GP2D cells. In words: GP2D cell proliferation (CellTiter-Glo). The following applies: 72 hr, 0.5% DMSO, read-out: CTG(IC50) ABS-72 H(nM) GP2D. As to the method:
as §1

A further experiment deals with MKN1 cells. In words: MKN1 cell proliferation (CellTiter-Glo). The note with it: 0.5% DMSO, read-out: CTG(IC50) ABS-72 H(nM) MKN1. As to the method: as §1

Like-named read-outs stand apart in the source and are kept apart here. Bounds are passed on as bounds.

Usually IC50 stands for the concentration that inhibits the measured activity by half. On to “2-(3-(2-[(1-(3-azabicyclo[3.1.0]hexan-3-ylmethylcyclopropyl) methoxy]-7-(8-ethynyl-7-fluoro-3-hydroxynaphthalen-1-yl)-8-fluoro-5-methoxypyrido[4,3-d]pyrimidin-4-yl-3,8-diazabicyclo[3.2.1]octan-8-yl)acetonitrile [Compound 1]”, for which the IC50 in the experiment on AGS cells was under 100 nM; in the experiment on GP2D cells, under 100 nM; in the experiment on MKN1 cells (72 hr), over 1000 nM.
`C#Cc1c(F)ccc2cc(O)cc(-c3nc(OC)c4c(N5CC6CCC(C5)N6C(=O)C#N)nc(OCC5(CN6CC7CC7C6)CC5)nc4c3F)c12` (centres unmarked) [Compound 2]: the IC50 is under 100 nM with AGS cells (Homo sapiens); under 100 nM with GP2D cells; 100 to 1000 nM in the experiment with MKN1 cells (Homo sapiens, MKN-1, 72 hr).
`C#Cc1c(F)ccc2cc(O)cc(-c3nc(OC)c4c(N5CC6CCC(C5)N6CCC#N)nc(OCC5(CN6CC7CC7C6)CC5)nc4c3F)c12` (centres unmarked) [Compound 3]: the IC50 in the experiment with AGS cells (Homo sapiens) was 100 to 1000 nM; in the experiment with GP2D cells, under 100 nM; in the experiment on MKN1 cells (Homo sapiens, MKN-1, 72 hr), over 1000 nM.
The matching figures for `C#Cc1c(F)ccc2cc(O)cc(-c3nc(OC)c4c(N5CC6CCC(C5)N6CC(F)(F)F)nc(OCC5(CN6CC7CC7C6)CC5)nc4c3F)c12` (centres unmarked) [Compound 4]: over 1000 nM, 100 to 1000 nM and over 1000 nM.
The matching figures for `C#Cc1c(F)ccc2cc(O)cc(-c3nc(OC)c4c(N5CC6CCC(C5)N6CCOC)nc(OCC5(CN6CC7CC7C6)CC5)nc4c3F)c12` (centres unmarked) [Compound 5]: 100 to 1000 nM, under 100 nM and over 1000 nM.
On the same counts, the results for `C#Cc1c(F)ccc2cc(O)cc(-c3nc(OC)c4c(N5CC6CCC(C5)N6CCO)nc(OCC5(CN6CC7CC7C6)CC5)nc4c3F)c12` (centres unmarked) [Compound 6] are 100 to 1000 nM, under 100 nM and 100 to 1000 nM.
Turning to `C#Cc1c(F)ccc2cc(O)cc(-c3nc(OC)c4c(N5CC6CCC(C5)N6CCCO)nc(OCC5(CN6CC7CC7C6)CC5)nc4c3F)c12` (centres unmarked) [Compound 7], the IC50 in the experiment with AGS cells (Homo sapiens) was 100 to 1000 nM; with GP2D cells, under 100 nM; in the experiment with MKN1 cells (Homo sapiens, MKN-1, 72 hr), 100 to 1000 nM.
For the compound `C#Cc1c(F)ccc2cc(O)cc(-c3nc(OC)c4c(N5CC6CCC(C5)N6CC#N)nc(OC[C@]56CCCN5C[C@@H](F)C6)nc4c3F)c12` [Compound 8], the IC50 with AGS cells (Homo sapiens) was under 100 nM; in the experiment on GP2D cells, under 100 nM; in the experiment with MKN1 cells (Homo sapiens, MKN-1, 72 hr), over 1000 nM.
Consider `C#CCN1C2CCC1CN(c1nc(OCC3(CN4CC5CC5C4)CC3)nc3c(F)c(-c4cc(O)cc5ccc(F)c(C#C)c45)nc(OC)c13)C2` (centres unmarked) [Compound 9], for which the IC50 was under 100 nM in the experiment with AGS cells (Homo sapiens); under 100 nM with GP2D cells; over 1000 nM in the experiment with MKN1 cells (Homo sapiens, MKN-1, 72 hr).
For the compound `[2H]C([2H])([2H])Oc1nc(-c2cc(O)cc3ccc(F)c(C#C)c23)c(F)c2nc(OCC3(CN4CC5CC5C4)CC3)nc(N3CC4CCC(C3)N4C#N)c12` (centres unmarked) [Compound 10], the IC50 with AGS cells (Homo sapiens) is 100 to 1000 nM; in the experiment on GP2D cells it was under 100 nM; in the experiment with MKN1 cells (Homo sapiens, MKN-1, 72 hr) it was 100 to 1000 nM.
For `[2H]C([2H])([2H])Oc1nc(-c2cc(O)cc3ccc(F)c(C#C)c23)c(F)c2nc(OCC3(CN4CC5CC5C4)CC3)nc(N3CC4CCC(C3)N4CC#N)c12` (centres unmarked) [Compound 11], the IC50 with AGS cells (Homo sapiens) is under 100 nM; with GP2D cells, under 100 nM; in the experiment with MKN1 cells (Homo sapiens, MKN-1, 72 hr), 100 to 1000 nM.
In the case of `C#Cc1c(F)ccc2cc(O)cc(-c3nc(OC)c4c(N5CC6CCC(C5)N6CC(C)=O)nc(OCC5(CN6CC7CC7C6)CC5)nc4c3F)c12` (centres unmarked) [Compound 12], the IC50 in the experiment with AGS cells (Homo sapiens) was under 100 nM; in the experiment on GP2D cells, under 100 nM; in the experiment on MKN1 cells (Homo sapiens, MKN-1, 72 hr), over 1000 nM.
Take `C#Cc1c(F)ccc2cc(O)cc(-c3nc(OC)c4c(N5CC6CCC(C5)N6CC(F)F)nc(OCC5(CN6CC7CC7C6)CC5)nc4c3F)c12` (centres unmarked) [Compound 13]: the IC50 with AGS cells (Homo sapiens) was 100 to 1000 nM; in the experiment with GP2D cells, 100 to 1000 nM; in the experiment on MKN1 cells (Homo sapiens, MKN-1, 72 hr), over 1000 nM.
Turning to `C#Cc1c(F)ccc2cc(O)cc(-c3nc(OC)c4c(N5CC6CCC(C5)N6CCCC#N)nc(OCC5(CN6CC7CC7C6)CC5)nc4c3F)c12` (centres unmarked) [Compound 14], the half-maximal inhibitory concentration (IC50) was under 100 nM in the experiment on AGS cells (Homo sapiens); under 100 nM in the experiment on GP2D cells; 100 to 1000 nM in the experiment on MKN1 cells (Homo sapiens, MKN-1, 72 hr).
As to `C#Cc1c(F)ccc2cc(O)cc(-c3nc(OC)c4c(N5CC6CCC(C5)N6C(C)CCC#N)nc(OCC5(CN6CC7CC7C6)CC5)nc4c3F)c12` (centres unmarked) [Compound 15], the IC50 is 100 to 1000 nM in the experiment on AGS cells (Homo sapiens); over 1000 nM with GP2D cells; over 1000 nM in the experiment with MKN1 cells (Homo sapiens, MKN-1, 72 hr).
As for `C#Cc1c(F)ccc2cc(O)cc(-c3nc(OC)c4c(N5CC6CCC(C5)N6CCC(=O)O)nc(OCC5(CN6CCC(F)CC6)CC5)nc4c3F)c12` [Compound 16], the IC50 in the experiment on AGS cells (Homo sapiens) is over 1000 nM; in the experiment on GP2D cells, 100 to 1000 nM; in the experiment with MKN1 cells (Homo sapiens, MKN-1, 72 hr) it was over 1000 nM.
Consider `C#Cc1c(F)ccc2cc(O)cc(-c3nc(OC)c4c(N5CC6CCC(C5)N6CCCF)nc(OCC5(CN6CCC(F)CC6)CC5)nc4c3F)c12` [Compound 17], for which the IC50 is 100 to 1000 nM in the experiment with AGS cells (Homo sapiens); under 100 nM in the experiment with GP2D cells; over 1000 nM with MKN1 cells (Homo sapiens, MKN-1, 72 hr).
With `C#Cc1c(F)ccc2cc(O)cc(-c3nc(OC)c4c(N5CC6CCC(C5)N6CC(=O)O)nc(OCC5(CN6CCC(F)CC6)CC5)nc4c3F)c12` [Compound 18], the IC50 in the experiment on AGS cells (Homo sapiens) is over 1000 nM; in the experiment on MKN1 cells (Homo sapiens, MKN-1, 72 hr) it was over 1000 nM.

Source of the values: patent US20260297113A1, “DIAZABICYCLOOCTANE INHIBITORS OF KRAS(G12D) AND USES” (Ranok Therapeutics (Hangzhou) Co. Ltd., priority 2023, published 2026).
